{"source": "paper PMC12320245", "about": "(International Journal of Biological Sciences, 2025)", "key": {"[1]": {"tested_on": "primary hippocampal neurons", "test": "Scratch injury: MAP2 / NeuN immunocytochemistry", "format": "cell-based, rat", "conditions": "scratched neurons, 24 hours after scratch", "experimental": "(§1) Primary hippocampal neurons were obtained from embryonic day 18 (E18) Sprague-Dawley rat embryos. Pregnant rats were anesthetized using 2-3% isoflurane in a gas mixture of 70% nitrous oxide and 30% oxygen. Following euthanasia, the hippocampi were carefully dissected, minced, and enzymatically dissociated using TrypLE Express (Gibco, NY, USA) for 10 minutes at 37°C. The tissue was further mechanically dissociated using fire-polished glass pipettes, and the resulting cell suspension was filtered through a 70 μm cell strainer to remove debris. Neurons were seeded at a density of 3 × 10^5 cells per well in 24-well plates pre-coated with poly-L-lysine (Sigma-Aldrich, Saint Louis, MO, USA). Cells were maintained in neurobasal medium supplemented with B-27 (Thermo Fisher Scientific, Waltham, MA, USA), GlutaMAX (Gibco), and penicillin-streptomycin. The cultures were incubated at 37.5°C in a humidified atmosphere containing 5% CO₂. After seven days of growth, neurons were fixed with 4% paraformaldehyde (PFA) for 15 minutes at room temperature and subsequently stored at 4°C until their further use for immunostaining.\n(§2) A scratch injury model was used to mimic TBI in vitro. […] After the treatment period, neuronal damage and recovery were assessed using appropriate evaluation methods. […]"}, "hippocampus of TBI rats [2]": {"tested_on": "hippocampus of TBI rats", "test": "Controlled cortical impact TBI: hippocampal cAMP ELISA", "format": "in vivo", "conditions": "rat, 3 hours post-TBI, AMX 100 mg/kg i.p.", "experimental": "(§3) This study used male Sprague-Dawley rats weighing 300-350 g and aged 8 weeks, obtained from DBL Co. (Chungcheongbuk-do, Republic of Korea). The rats were housed in a controlled environment with a temperature of 20 ± 2 °C, a relative humidity of 55 ± 5%, and a 12-hour light/dark cycle. They were provided ad libitum access to food and water. To minimize stress associated with transportation, animals underwent a one-week acclimatization period before the start of the experiments. All experimental procedures were conducted in compliance with the guidelines of the National Institutes of Health for the care and use of laboratory animals and were approved by the Hallym University Institutional Animal Care and Use Committee (protocol # Hallym 2022-23, approved on July 15, 2022). This manuscript follows the principles outlined in the Animal research: reporting in vivo experiments (ARRIVE) guidelines.\n(§4) A controlled cortical impact (CCI) model was used to induce TBI in rats. Animals were anesthetized with 1-1.5% isoflurane in a 30:70 oxygen-to-nitrous oxide mixture and securely positioned in a stereotaxic frame. A 3 mm craniotomy was performed using a portable drill at a site 2.8 mm lateral to the midline and 3.0 mm posterior to Bregma. […]"}, "[3]": {"tested_on": "primary hippocampal neurons", "test": "Scratch injury: p-PKA immunofluorescence", "format": "cell-based, rat", "conditions": "24 hours after scratch injury", "experimental": "as §1, §2"}, "hippocampus of TBI rats [4]": {"tested_on": "hippocampus of TBI rats", "test": "Controlled cortical impact TBI: NeuN immunohistochemistry", "format": "in vivo, rat", "conditions": "CA1, CA3, GCL, hilus, 2 weeks post-TBI, vs TBI-vehicle", "experimental": "as §3, §4"}, "[5]": {"tested_on": "primary hippocampal neurons", "test": "Scratch injury: cell viability analysis", "format": "cell-based, rat", "conditions": "scratched neurons, 24 hours post-scratch, 10 μM AMX", "experimental": "as §1, with “After seven days of growth, neurons were fixed with 4% paraformaldehyde (PFA) for 15 minutes at room temperature and subsequently stored at 4°C until their further use for immunostaining.” left out\n(§5) A scratch injury model was used to mimic TBI in vitro. […] After the treatment period, neuronal damage and recovery were assessed using appropriate evaluation methods.\n[…] After incubation, absorbance was measured at 450 nm using a microplate reader (Spectramax, Molecular Devices Co., CA, USA). […]"}, "[6]": {"tested_on": "primary hippocampal neurons", "test": "Scratch injury: lysosomal zinc (FluoZin-3 / LysoTracker)", "format": "cell-based, rat", "conditions": "scratched neurons, 24 hours after scratch", "experimental": "as §1, §5"}}}
{"smiles": "CC(C)c1ccc2oc3nc(N)c(C(=O)O)cc3c(=O)c2c1", "note": "[AMX, amlexanox]", "values": [{"measurement": "MAP2 fluorescence intensity (dendritic loss)", "setting": "[1]", "value": "Increased MAP2 fluorescence intensity"}, {"measurement": "number of NeuN-positive neurons", "setting": "[1]", "value": "significantly higher"}, {"measurement": "hippocampal cAMP levels (ELISA)", "setting": "hippocampus of TBI rats [2]", "value": "restored cAMP levels to values comparable to sham controls"}, {"measurement": "phosphorylation of PKA (immunofluorescence, Figure S2E-J)", "setting": "[3]", "value": "increasing the phosphorylation of PKA"}, {"measurement": "NeuN-positive cell counts", "setting": "hippocampus of TBI rats [4]", "value": "higher NeuN-positive cell counts"}, {"measurement": "cell viability", "setting": "[5]", "value": "substantially improved cell viability"}, {"measurement": "lysosomal zinc levels (FluoZin-3 / LysoTracker)", "setting": "[6]", "value": "restored lysosomal zinc levels to near-normal levels"}]}
